Results taken from patent US10711011B2, “Substituted oxazolidines as anti-bacterial agents” (BUGWORKS RESEARCH, INC., priority 2016, dated 2020).
Converted amounts (≈) assume the structure as drawn.

Tests used:
E. coli ATCC 25922 = test: Minimum Inhibitory Concentration (MIC) in LB media; format: cell-based, Escherichia coli; conditions: Escherichia coli, ATCC25922, LB Media
From the text: (§1) The compounds of Formula I are of interest due to their potent antibacterial effects. The ability of the invention compounds disclosed herein to achieve an antibacterial effect may be evaluated with regard to their ability to inhibit the growth of bacterial species like Escherichia coli ATCC 25922, Staphylococcus aureus ATCC 29213, Klebsiella pneumoniae ATCC 13883, Acinetobacter baumannii ATCC 19606, Pseudomonas aurigenosa ATCC 27853, Enterococcus faecalis ATCC 29212 and Enterococcus faecalis ATCC 29212 using an assay based on the following Minimum Inhibitory Concentration (MIC) protocol:
(§2) The test bacteria are grown in Luria Bertani Broth (HIMEDIA M1245), 25 grams of the powder is dissolved in 1000 ml distilled water and sterilized by autoclaving at 15 lbs pressure (121° C.) for 20 minutes. The medium sterility is checked by incubating at 37° C. for a period of 48 h.
(§3) Bacterial cultures that are stored as glycerol stocks at −80° C. are sub cultured on LB agar plates to obtain isolated colonies. A single colony of each strain is cultured in LB broth. The cultures are incubated at 37° C., 200 rpm till they reach an optical density (OD at 600 nm) of 0.8 to 1. […] Test compounds are dissolved in dimethyl sulfoxide (DMSO) to a stock concentration of 4 mg/ml. A twofold dilution series of this DMSO stock is prepared in a 96 well V bottom microtitre plate from rows A to H. A 3 μL volume of these dilutions are transferred to a 96-well flat bottom microtitre assay plate. Controls to monitor the effects of DMSO and media sterility are included. Each well is inoculated with 150 μL of the above diluted culture. The plates are incubated at 37° C. overnight in a humidified incubator. The following morning, the plates are read using a Spectrophotometer at 600 nm wavelength. […] The antibacterial activity (MIC) determined against representative Gram positive (S. aureus, E. faecalis) and Gram negative (E. coli, P. aurigenosa, K. pneumoniae and A. baumannii) pathogen were reported Table 1.

E. faecalis ATCC 29212 = test: Minimum Inhibitory Concentration (MIC) in LB media; format: cell-based, Enterococcus faecalis; conditions: Enterococcus faecalis, ATCC29212
From the text: as §1, §2, §3

A. baumannii ATCC 19606 = test: Minimum Inhibitory Concentration (MIC) in LB media; format: cell-based, Acinetobacter baumannii; conditions: Acinetobacter baumannii, ATCC19606, LB Media
From the text: as §1, §2, §3

K. pneumoniae ATCC 13883 = test: Minimum Inhibitory Concentration (MIC) in LB media; format: cell-based, Klebsiella pneumoniae; conditions: Klebsiella pneumoniae, ATCC13883, LB Media
From the text: as §1, §2, §3

E. coli [ATCC 25922] = test: In vivo efficacy in the mouse E. coli thigh infection model; conditions: neutropenic BALB/c mice, oral
Description: To assess the Oral efficacy, Example 13 was tested in BALB/c mice thigh infection model following per oral doses of 100 mg/kg once, 50 mg/kg once and twice, 33 mg/kg thrice and 25 mg/kg four times over a 24 hour period post infection. This study was performed following all ethical practices as laid down in the guidelines for animal care (Registration number No. 1852/PO/Rc/S/16/CPCSEA). The study was approved by the Institutional Animals Ethics Committee (IAEC) of the test facility. The formulation used was 0.1% Tween80 in 0.25% CMC and Example 13 administered as suspension through an oral gavage. Neutropenic mice were infected with [˜1×10^6 CFU/mouse] E. coli [ATCC 25922] by intramuscular route. Two hours post infection, mice were treated orally with total doses of 100, 50, 50, 33 and 25 mg/kg of Example 13 as one, two, three and four equally divided doses over a 24 h period. Animals were sacrificed 24 hr post infection and thigh tissues were harvested to enumerate the bacterial CFU count. Thigh muscles were placed in 1 ml of sterile LB broth and homogenized using a homogenizer (Omni Tip (220 volt hand held)). Serial ten-fold dilutions of the thigh homogenates were prepared in sterile LB broth, 0.05 ml of four dilutions for each thigh was plated onto Lactose agar plates. […]

E. coli DNA gyrase = E. coli DNA gyrase (Escherichia coli, UniProt P0AES4+P0AES6); test: biochemical; conditions: supercoiling assay
Chain of E. coli DNA gyrase (P0AES4 whole entry, one chain of several): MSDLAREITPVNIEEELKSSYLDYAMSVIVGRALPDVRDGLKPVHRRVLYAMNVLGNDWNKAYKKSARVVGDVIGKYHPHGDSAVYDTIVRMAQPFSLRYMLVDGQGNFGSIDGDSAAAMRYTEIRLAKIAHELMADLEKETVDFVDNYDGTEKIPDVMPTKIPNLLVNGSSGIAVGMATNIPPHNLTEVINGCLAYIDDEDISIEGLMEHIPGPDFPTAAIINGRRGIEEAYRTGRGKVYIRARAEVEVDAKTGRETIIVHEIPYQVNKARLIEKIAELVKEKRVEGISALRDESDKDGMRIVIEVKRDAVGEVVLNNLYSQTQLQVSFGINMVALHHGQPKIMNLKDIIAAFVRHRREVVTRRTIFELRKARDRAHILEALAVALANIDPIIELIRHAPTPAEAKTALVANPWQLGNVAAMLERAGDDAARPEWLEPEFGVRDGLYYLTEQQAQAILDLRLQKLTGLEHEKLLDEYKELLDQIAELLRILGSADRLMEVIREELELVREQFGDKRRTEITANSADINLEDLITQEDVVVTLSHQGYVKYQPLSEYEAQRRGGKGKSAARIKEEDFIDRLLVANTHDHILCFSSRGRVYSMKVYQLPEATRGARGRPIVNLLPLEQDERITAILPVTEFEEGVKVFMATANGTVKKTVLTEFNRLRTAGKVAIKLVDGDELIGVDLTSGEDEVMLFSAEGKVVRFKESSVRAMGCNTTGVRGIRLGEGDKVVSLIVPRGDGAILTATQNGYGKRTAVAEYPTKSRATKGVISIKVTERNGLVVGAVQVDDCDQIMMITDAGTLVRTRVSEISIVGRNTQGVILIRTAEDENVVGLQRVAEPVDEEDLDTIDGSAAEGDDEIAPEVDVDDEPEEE

`CN1C(=O)Cc2ccc(F)c(CCNCCC3CN(c4ccc5c(n4)NC(=O)CO5)C(=O)O3)c21` (single isomer, unassigned) [Example 13, 6-(5-(2-((2-(6-fluoro-1-methyl-2-oxoindolin-7-yl)ethyl)amino)ethyl)-2-oxooxazolidin-3-yl)-2H-pyrido[3,2-b][1,4]oxazin-3(4H)-one] was tested, and the MIC (E. coli ATCC 25922) was 0.06 µg/mL (≈ 0.128 µM), the MIC (E. faecalis ATCC 29212) was 0.25 µg/mL (≈ 0.533 µM) and the MIC (A. baumannii ATCC 19606) was 0.06 µg/mL (≈ 0.128 µM). For the same compound, the MIC (K. pneumoniae ATCC 13883) was 0.125 µg/mL (≈ 0.266 µM), the “efficacy (bacterial density Log 10 CFU/thigh vs vehicle)” value (E. coli [ATCC 25922]; 100 mg/kg as single, two, three and four equally divided doses over 24 h) was “significant efficacy” and the “efficacy (bacterial density Log 10 CFU/thigh vs vehicle)” value (E. coli [ATCC 25922]; single dose of 50 mg/kg) was “ineffective”. The IC50 (E. coli DNA gyrase) was 50 nM.
